Source: BigSolDB 2.1

Cc1cc([N+](=O)[O-])ccc1N
solubility (mole fraction)
Settings | in 2-butanone | in acetone | in acetonitrile | in cyclohexane | in ethanol | in ethyl acetate
278.15 K | 0.0846 | 0.0764 | 0.0308 | – | 0.00732 | 0.062
280.65 K | 0.0899 | 0.0815 | 0.0335 | – | 0.00807 | 0.0669
283.15 K | 0.0955 | 0.0875 | 0.0362 | 2.5e-05 | 0.00887 | 0.0722
285.65 K | 0.101 | 0.0933 | 0.039 | 2.87e-05 | 0.00974 | 0.0776
288.15 K | 0.107 | 0.0996 | 0.0423 | 3.37e-05 | 0.0107 | 0.0837
290.65 K | 0.114 | 0.106 | 0.0456 | 3.87e-05 | 0.0117 | 0.0897
293.15 K | 0.12 | 0.113 | 0.0491 | 4.47e-05 | 0.0127 | 0.096
295.65 K | 0.127 | 0.12 | 0.0528 | 5.27e-05 | 0.0139 | 0.103
298.15 K | 0.134 | 0.127 | 0.0566 | 6.13e-05 | 0.0152 | 0.11
300.65 K | 0.141 | 0.135 | 0.0607 | 6.99e-05 | 0.0165 | 0.117
303.15 K | 0.149 | 0.142 | 0.0651 | 8.08e-05 | 0.018 | –
305.65 K | 0.157 | 0.151 | 0.0699 | 9.26e-05 | 0.0197 | –
308.15 K | 0.165 | – | 0.0747 | 0.000108 | 0.0213 | –
310.65 K | 0.174 | – | 0.0797 | 0.000122 | 0.0231 | –
313.15 K | 0.183 | – | 0.0852 | 0.000139 | 0.025 | –
